A short description of data set [1]: Pharmacokinetics after intravenous dosing in dogs (plasma concentrations by LC-MS/MS). The conditions noted are these: dog (beagle), 0.5 mg/kg intravenously. Type of data set: in vivo, dogs (beagles). As to the method:
The pharmacokinetics of Example 1 (E-1) was evaluated, and compared to that of Example 163 and Example 190 both disclosed in International PCT Application, No. PCT/US09/036,501, filed Mar. 9, 2009. Compounds were formulated in a 1:1 solution (by volume) of PEG200: water and dosed at 0.5 mg/kg of body weight. The formulation was dosed intravenously in 2 dogs (beagles), and blood was drawn at the following time points (hours) 0.08, 0.25, 0.5, 1, 2, 4, 6, 8, 24. The plasma concentrations shown in the table below were determined by protein precipitation followed by liquid chromatography—tandem mass spectrometry analysis.

Data set [2] has as its target T1, PHD2 (Homo sapiens, UniProt Q9GZT9).
T1 construct: FLAG-tagged full length PHD2 expressed in and purified from baculovirus-infected Sf9 cells; FLAG; made in house; host or cells: baculovirus-infected Sf9 cells
The experiment in a line: PHD2 / HIF-1α peptide time resolved fluorescence inhibition assay. Type of data set: biochemical. As to the method:
To each well of a 96-well plate was added 1 μL of test compound in DMSO and 20 μl of assay buffer (50 mM Tris pH 7.4/0.01% Tween-20/0.1 mg/ml bovine serum albumin/10 μM ferrous sulfate/1 mM sodium ascorbate/20 μg/ml catalase) containing 0.15 μg/ml FLAG-tagged full length PHD2 expressed in and purified from baculovirus-infected Sf9 cells. After a 30 min preincubation at room temperature, the enzymatic reactions were initiated by the addition of 4 μL of substrates (final concentrations of 0.2 μM 2-oxoglutarate and 0.5 μM HIF-1α peptide biotinyl-DLDLEMLAPYIPMDDDFQL). After 2 hr at room temperature, the reactions were terminated and signals were developed by the addition of a 25 μL quench/detection mix to a final concentration of 1 mM ortho-phenanthroline, 0.1 mM EDTA, 0.5 nM anti-(His)6 LANCE reagent (Perkin-Elmer Life Sciences), 100 nM AF647-labeled streptavidin (Invitrogen), and 2 μg/ml (His)6-VHL complex (S. Tan (2001) Protein Expr. Purif. 21, 224-234). The ratio of time resolved fluorescence signals at 665 and 620 nm was determined, and percent inhibition was calculated relative to an uninhibited control sample run in parallel.

T1 sequence (Q9GZT9 whole entry): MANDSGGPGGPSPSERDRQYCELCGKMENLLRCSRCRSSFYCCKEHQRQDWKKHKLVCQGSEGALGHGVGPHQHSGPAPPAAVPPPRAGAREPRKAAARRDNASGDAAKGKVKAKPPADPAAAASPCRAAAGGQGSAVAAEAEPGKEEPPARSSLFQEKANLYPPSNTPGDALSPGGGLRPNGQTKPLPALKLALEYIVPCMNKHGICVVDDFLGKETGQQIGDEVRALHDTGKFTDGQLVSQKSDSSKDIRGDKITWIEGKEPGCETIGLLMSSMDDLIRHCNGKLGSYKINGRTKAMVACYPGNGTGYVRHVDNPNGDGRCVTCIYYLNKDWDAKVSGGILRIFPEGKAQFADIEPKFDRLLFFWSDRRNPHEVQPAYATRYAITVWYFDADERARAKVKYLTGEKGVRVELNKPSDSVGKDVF

On to `COc1ccc(C(NC(=O)c2cnc(-c3cccnn3)nc2O)C2CCOCC2)cn1` (single isomer, unassigned) [Example 1, (R)- or (S)-4-Hydroxy-N-[(6-methoxypyridin-3-yl)(tetrahydro-2H-pyran-4-yl)methyl]-2-pyridazin-3-ylpyrimidine-5-carboxamide], for which, in data set [1], the MRT turned out to be 7.93 h and the clearance was determined as 1.35 mL/min/kg. In data set [1] (PEG200:water 1:1, time 0.08 hours), this molecule displayed a concentration at 0.08 h of 2230 nM. The half-life in data set [1] (read-out: T ½ (converted)) was 6.07 h. In data set [1] (time 0.25 hours), this molecule registered a concentration at 0.25 h of 2060 nM. Also, in data set [1] (time 0.50 hours), the concentration at 0.5 h is 1960 nM. In data set [1] (time 1.00 hours), this molecule yielded a concentration at 1 h of 1660 nM. In data set [1] (time 2.00 hours), this molecule gave a concentration at 2 h of 1390 nM. The concentration at 4 h in data set [1] (time 4.00 hours) is 1320 nM. In addition, the concentration at 6 h in data set [1] (time 6.00 hours) is 917 nM. The molecule further showed a concentration at 8 h in data set [1] (time 8.00 hours) of 504 nM. In data set [1] (time 24.00 hours), this molecule registered a concentration at 24 h of 100 nM. In addition, the “IC50, inhibition of the interaction between PHD2 and a HIF peptide” value in data set [2] (range printed in mixed units (nanomolar to micromolar)) was in the range of 0.1 to 10000 nM. Also, the IC50 in data set [2] (read-out: PHD2 binding activity expressed as IC50) is ≤ 10 nM.

Usually MRT stands for a mean duration of stay, worked out from the concentration-time curve. As usually defined, the clearance is the rate of elimination divided by the concentration. A word on the IC50: it is the concentration that inhibits the measured activity by half.

The values above are taken from patent US8815865B2, “Substituted 4-hydroxypyrimidine-5-carboxamides” (Merck Sharp & Dohme Corp., priority 2009, dated 2014).
